Values after ≈ are worked out from the molar mass of the structure shown. Like-named read-outs stand apart in the source and are kept apart here.

Data on one molecule can be found in patent publication US20040001888A1, “Solid dosage forms for rapid dissolution of poorly soluble drugs” (BioPharm Solutions Inc., priority 2002, published 2004).

Data set [1] is described as follows: Size distribution of drug-lipid droplets after dissolution (sub-micron particle sizer). The class given is physicochemical. The note with it: triamterene from active-release tablets. The protocol:
The morphologies of triamterene after dissolution in 0.1 M HCl and in water were characterized using a sub-micron particle sizer. The aliquots collected at the end of dissolution were centrifuged under the same conditions as in Example 4 prior to measurement. […] The impregnated powder was suspended in 900 ml PBS buffer at 37° C. with stirring at 100 rpm. […] The aliquots were collected at programmed time intervals, followed by centrifugation at 1000 rpm in an Eppendorf tube for 1 min.

The conditions of data set [2]: cited from earlier work.
Data set [3] in a line: Water dispersity of triamterene-Gelucire 44/14 melts. The class given is physicochemical. The following applies: 30 mg triamterene in melted Gelucire, drug-lipid melt in 900 ml water. The protocol:
To examine the compositions described above, triamterene was used as a model drug. […] In experiment, 30 mg triamterene was dissolved in various amounts of melted Gelucire to make the drug concentration to be 5%, 7.5%, 10% 12.5% 15% and 20%, respectively. Then the drug-lipid melts were dissolved in 900 ml of water. Up to 10% of triamterene in Gelucire, the drug was dispersed in water without precipitates. At higher drug contents (i.e. less lipids), precipitates were observed under a microscope. Drug concentration (in Gelucire) of 10% was selected-for later experiments.

What is called solubility is the concentration that dissolves in the medium under given conditions. With `Nc1nc(N)c2nc(-c3ccccc3)c(N)nc2n1` [triamterene], the “mean diameter of droplets” value in data set [1] (dissolution in water) is listed as 277 nm. For the same molecule, the particles after dissolution result in data set [1] (dissolution medium 0.1 M HCl) is “no particles were detected”. The solubility in data set [2] (pH 1 buffer) was 321 µg/mL (≈ 1270 µM); in data set [2] (pH 7), 45 µg/mL (≈ 178 µM). Moreover, the “drug concentration in Gelucire dispersed in water without precipitates” value in data set [3] was “Up to 10%”.
